Source: US20040023884A1, “Biologically active peptides from functional domains of bactericidal/permeability-increasing protein and uses thereof” (priority 1993, published 2004)

Key:
[1] = tested on: rough mutant E. coli J5 bacteria; assay: Radial diffusion bactericidal assay, E. coli J5; format: cell-based; settings: radial diffusion; for bactericidal activity (in words): E. coli J5; for pmol added to well to achieve a 30 mm^2 bactericidal zone, E. coli J5: PROBIT analysis, E. coli J5 (rough)
In short: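 Wells received 5 or 10 μL of BPI fragment, pre-incubated 3 h at 37 °C. The underlayer agarose carried washed log-phase organisms at 4×10^6 CFU/mL.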

[2] = 3H-heparin binding assay (affinity and capacity); settings: for Heparin Capacity: heparin bound at saturation; for Kd: read-out: Heparin Affinity
In short: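 Bound 3H-heparin was counted by liquid scintillation after 1 h incubation at 4 °C with fragments immobilised on PVDF-bottomed wells, then washing in blocking buffer. Signal was corrected for BSA-related background, and varying amounts of rBPI23 were used as positive control.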

[3] = tested on: E. coli 0111:B4 (smooth) bacteria; assay: Radial diffusion bactericidal assay, E. coli 0111:B4; format: cell-based; settings: radial diffusion; PROBIT analysis; E. coli O111:B4 (smooth)
Staphylococcus aureus = assay: Radial diffusion bactericidal assay, Staphylococcus aureus; format: cell-based; settings: radial diffusion; PROBIT analysis; S. aureus
[4] = In vitro heparin-mediated lengthening of APTT / clotting time of heparinized plasma; format: biochemical, human; settings: FIG. 12g
Procedure: In vitro, the effect of BPI combination functional domain peptides was determined on heparin-mediated lengthening of activated partial […] (APTT). The APTT is lengthened by the presence of endogenous or exogenous inhibitors of thrombin formation, such as therapeutically administered heparin. Thus, agents which neutralize the anti-coagulant effects of heparin will reduce the APTT measured by the test. Citrated human plasma (200 μL) was incubated for 1 minute at 37° C. with either 15 μL of diluent (0.15 M NaCl, 0.1 M Tris-HCl, pH 7.4) or 15 μL of the diluent also containing 25 μg/mL heparin (187 units/mg). Various concentrations (from 0.0 to 56 μg/mL) of rBPI23, rBPI21Δcys, or BPI combination peptides BPI.29 (the DIII homodimer) and BPI.30 (heterodimer DII+DIII) in a volume of 15 μL were added, followed immediately by 100 μL of thrombin reagent (Catalog No. 845-4, Sigma Chemical Co., St. Louis. MO). Clotting time ([…]) was measured using a BBL Fibrometer (Becton Dickenson Microbiology Systems, Cockeysville, Md.). […] FIG. 12e illustrates the results obtained with BPI.30 on a non-log scale.

[5] = tested on: zymosan-stimulated NO production by RAW 264.7 cells; assay: Zymosan-stimulated NO production by RAW 264.7 cells; format: cell-based, mouse
Procedure: An additional LPS neutralization screening assay for BPI functional domain peptides was developed using an assay for NO production in mouse cells treated with LPS (see Lorsbach et al., 1993, J. Biol. Chem. 268: 1908-1913). In this assay, mouse RAW 264.7 cells (ATCC Accession No. TIB71) were treated with bacterial LPS. The cells were incubated in 96-well plates and stimulated for 2 hours with E. coli 0113 LPS or zymosan, in the presence or absence of _-interferon, rLBP, fetal bovine serum (FBS) or normal human serum (NHS), or rBPI21Δcys. After this incubation, the cells were washed with fresh media and incubated overnight in media containing 10% FCS. The NO released from the cells accumulated in the media and spontaneously converted to nitrite. This nitrite was assayed in situ by the Griess reaction, as follows. The nitrite was reacted with the primary amine of an added sulfanilamide and formed a diazonium salt. This salt was then reacted with added naphthylethylenediamine to form a red azo-dyc. The Griess reaction was performed at room temperature in about 10 minutes. The amount of produced NO was estimated from a standard curve of Griess reaction products determined spectrophotometrically as Absorbance at a wavelength of 550 nm.

| Molecule | bactericidal activity (in words) [1] | pmol added to well to achieve a 30 mm^2 bactericidal zone, E. coli J5 [1] | heparin binding capacity (in words) [2] | Heparin Capacity [2] [ng] | Kd [2] [nM] | pmol added to well to achieve a 30 mm^2 bactericidal zone, E. coli O111:B4 [3] | pmol added to well to achieve a 30 mm^2 bactericidal zone, S. aureus (Staphylococcus aureus) | effect on the clotting time of heparinized blood (in words) [4] | inhibition of zymosan-stimulated NO production (in words) [5] |
| --- | --- | --- | --- | --- | --- | --- | --- | --- | --- |
| GTAALQKELKRIKIPDYSDSFKIKHLGKGH [BPI.14] | little or no bactericidal activity | b (no detectable activity up to 5 μg/well) | low heparin binding capacity | 119.3 | 396 | b (no detectable activity up to 5 μg/well) | b (no detectable activity up to 5 μg/well) | less of a decrease in clotting times | not inhibited |
| LQKELKRIKIPDYSDSFKIKHL [BPI.4] | little or no bactericidal activity | b (no detectable activity up to 5 μg/well) | low heparin binding capacity | 80.8 | 336 | b (no detectable activity up to 5 μg/well) | b (no detectable activity up to 5 μg/well) | less of a decrease in clotting times | not inhibited |
| rLBP: recombinant lipopolysaccharide binding protein (LBP holoprotein) (protein, UniProt P18428 26-481, looked up) Lipopolysaccharide-binding …: ANPGLVARITDKGLQYAAQEGLLALQSELLRITLPDFTGDLRIPHVGRGRYEFHSLNIHSCELLHSALRPVPGQGLSLSISDSSIRVQGRWKVRKSFFKLQGSFDVSVKGISISVNLLLGSESSGRPTVTASSCSSDIADVEVDMSGDLGWLLNLFHNQIESKFQKVLESRICEMIQKSVSSDLQPYLQTLPVTTEIDSFADIDYSLVEAPRATAQMLEVMFKGEIFHRNHRSPVTLLAAVMSLPEEHNKMVYFAISDYVFNTASLVYHEEGYLNFSITDDMIPPDSNIRLTTKSFRPFVPRLARLYPNMNLELQGSVPSAPLLNFSPGNLSVDPYMEIDAFVLLPSSSKEPVFRLSVATNVSATLTFNTSKITGFLKPGKVKVELKESKVGLFNAELLEALLNYYILNTFYPKFNDKLAEGFPLPLLKRVQLYDLGLQIHKDFLFLGANVQYMRV | – | – | – | – | – | – | – | – | no significant inhibition |
